Laboratory results: US8207190B2, “Enantiomer of tenatoprazole and the use thereof in therapy” (Mitsubishi Tanabe Pharma Corporation, priority 2003, dated 2012)
Converted amounts (≈) assume the structure as drawn. Read-outs that look alike come from different tables or passages of the source.

Assays:
[1] = solubility of (+), (−) and racemic forms of tenatoprazole in water; type: physicochemical; settings: for solubility in water relative to the racemic form: versus racemic form
clinical = settings: human, plasma
[2] = versus other proton pump inhibitors such as omeprazole or lansoprazole; cited from earlier work
[3] = chiral pharmacokinetic study, plasma analysis after chiral separation in genotyped subjects
Experimental: In parallel, a chiral pharmacokinetic study was conducted to assess the preponderance of the pharmacokinetic characteristics of the (−) isomer in the pharmacokinetics of racemic tenatoprazole.
These subjects have a very weak metabolic activity concerning CYP2C19, which is responsible for the metabolism of tenatoprazole. […] These subjects are qualified as slow metabolisers.

solubility [1] [µg/mL] | half-life (clinical; 20 mg) [h] | half-life (clinical; 80 mg) [h] | Solubility (water) [1] [µg/mL] | solubility in water relative to the racemic form [1] | plasma level of the isomer compared with the other isomer ([3]; slow metabolisers, CYP2C19*2/*2 genotype, plasma after chiral separation) | Solubility (water) ([1]; listed as (−) form) [µg/mL] | plasma concentration of the isomer compared with the other isomer ([3]; rapid metabolisers, CYP2C19*1/*1 genotype) | Structure (SMILES) | plasma half-life relative to other proton pump inhibitors [2]
34.6 (≈ 99.9 µM) | ~7 | ~9 |  |  |  |  |  | COc1ccc2[nH]c([S+]([O-])Cc3ncc(C)c(OC)c3C)nc2n1 (racemic) [(±)racemic form, (+)-5-methoxy-2-{[(4-methoxy-3,5-dimethyl-2-pyridyl)methyl]sulfinyl}imidazo-[4,5-b]pyridine] | about seven
 |  |  | 93.0 (≈ 268 µM) | ~3 times | highly significant increase |  |  | COc1ccc2[nH]c([S+]([O-])Cc3ncc(C)c(OC)c3C)nc2n1 (single isomer, unassigned; (+)) [(+) form] | 
 |  |  |  | over 2 times |  | 74.4 (≈ 215 µM) | higher concentration | COc1ccc2[nH]c([S+]([O-])Cc3ncc(C)c(OC)c3C)nc2n1 (single isomer, unassigned; (-)) [(−) enantiomer] | 
